Measurements from US10155751B2, “Pyrazolyl-substituted heteroaryls and their use as medicaments” (Boehringer Ingelheim International GmbH, priority 2015, dated 2018).
Read-outs that look alike come from different tables or passages of the source.

Key:
[1] = molecular target: Recombinant human Aurora B (amino acids 1-344) (Homo sapiens (Human), UniProt Q96GD4); test: Aurora B kinase test (ADP Glo); type: biochemical
Protocol: (§1) The activity of the Aurora B kinase protein was determined using the ADP Glo® Luminescence Kinase test (Promega; V9103X). In this homogeneous test the amount of ADP remaining after the kinase reaction is quantified by a luciferin-luciferase reaction using luminescence. The luminescence signal obtained correlates with the amount of ADP still present and thus correlates with the activity of the protein kinase.
The test compounds were dissolved in 100% DMSO at a concentration of 10 mM and diluted in DMSO to a concentration of 5 mM. Serial Dilution is done in 1:10 steps in 100% DMSO. All further dilutions of the substances were carried out with test buffer (50 mM Hepes, pH 7.5, 10 mM MgCl2, 1 mM EGTA, 60 μM Ultra Pure ATP, 0.01% Brij35, 0.1% BSA, 5 mM 8-Glycerophosphate) until a concentration was reached which was 2.5 times above the final test concentration (final concentration of the compounds: 50 μM to 0.005 nM). 4 μl aliquots of these dilutions were transferred into a 384-well Optiplate (Perkin Elmer, #6007290). His-Aurora B was diluted to 125 nM in the test buffer and 4 μl of this dilution were used in the kinase test (final concentration of Aurora B=50 nM in a total volume of 10 μl). After 15 minutes incubation at room temperature 2 μl of 250 μM substrate ([[…]]; University of Dundee) in test buffer were added to each well and the incubation was continued for a further 60 minutes at room temperature.
(§2) Positive controls are the reaction mixtures that contain no test substance; negative controls (blanks) are reaction mixtures that contain no kinase.
(§3) After 60 minutes, 10 μl ADP-Glo® solution (ADP-Glo Reagent #V912B Promega) (heated to room temperature) were added to each well and incubation was continued for a further 40. minutes. Then 20 μl Kinase detection mix (Detection Buffer #V913B Promega; Kinase Detection Substrate #V914B Promega) were added and incubated for 40 minutes at room temperature. The plates were read in Envision Luminescence Reader (Perkin-Elmer).
(§4) The output file of the reader is a csv file that contains the well number and measured RLU. For data evaluation and calculation, the measurement of the negative control was set as 0% ctrl and the measurement of the positive control was set as 100% ctrl. Based on this values the % value for the measurement of each substance concentration can be calculated using an Assay Explorer software (e.g. Accelrys). Normally, the % ctrl values calculated are between 0% and 100% values but may also occur outside these limits in individual cases based on variability or compound characteristics. The IC50-values were calculated from the % ctrl values using Assay Explorer software. Calculation: [y=(a−d)/(1+(x/c)^b)+d], a=low value, d=high value; x=conc M; c=IC50 M; b=hill; y=% ctrl.

[2] = molecular target: Recombinant human FLT3 (amino acids 564-958) (Homo sapiens (Human), UniProt P36888); test: FLT3 kinase test (ADP Glo); type: biochemical
Sequence of Recombinant human FLT3 (amino acids 564-958) (P36888 564-958): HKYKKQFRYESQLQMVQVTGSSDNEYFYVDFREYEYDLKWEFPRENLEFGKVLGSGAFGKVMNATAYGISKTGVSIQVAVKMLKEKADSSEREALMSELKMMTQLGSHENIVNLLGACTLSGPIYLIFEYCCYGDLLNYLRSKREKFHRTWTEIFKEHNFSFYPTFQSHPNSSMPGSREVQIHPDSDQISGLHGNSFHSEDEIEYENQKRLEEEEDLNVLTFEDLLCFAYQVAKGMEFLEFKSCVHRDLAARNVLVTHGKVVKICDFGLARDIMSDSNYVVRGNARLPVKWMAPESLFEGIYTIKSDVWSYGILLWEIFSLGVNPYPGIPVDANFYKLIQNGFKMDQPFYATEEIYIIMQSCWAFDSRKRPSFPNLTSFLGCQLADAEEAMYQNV
Protocol: as §1, with “FLT3” for “Aurora B”
The test compounds were dissolved in 100% DMSO at a concentration of 10 mM and diluted in DMSO to a concentration of 5 mM. Serial Dilution is done in 1:10 steps in 100% DMSO. All further dilutions of the substances were carried out with test buffer (50 mM Hepes, pH 7.5, 10 mM MgCl2, 1 mM EGTA, 0.01% Brij35, 0.1% BSA) until a concentration was reached which was 2.5 times above the final test concentration (final concentration of the compounds: 50 μM to 0.005 nM). […] FLT3 enzyme was diluted to 5 nM in the test buffer and 4 μl of this dilution were used in the kinase test (final concentration of FLT3=2 nM in a total volume of 10 μl). After 60 minutes incubation at room temperature 2 μl mixture of 2.5 mg/ml substrate (Poly-Glu/Tyr; Sigma #P0275) and 2.5 mM ultra-pure ATP (Promega #V915B) in test buffer were added to each well and the incubation was continued for a further 90 minutes at room temperature.
as §2
as §3, with “90” for “60”, “60.” for “40.”
as §4, with “IC50 values” for “IC50-values”, “x=conc.” for “x=conc”

[3] = read-out: AURB inhibition IC50-value (chapter 5.3)
[4] = read-out: FLT3 inhibition IC50-value (chapter 5.4)

Sequence of Recombinant human Aurora B (amino acids 1-344) (Q96GD4 whole entry, the tested form may be a part): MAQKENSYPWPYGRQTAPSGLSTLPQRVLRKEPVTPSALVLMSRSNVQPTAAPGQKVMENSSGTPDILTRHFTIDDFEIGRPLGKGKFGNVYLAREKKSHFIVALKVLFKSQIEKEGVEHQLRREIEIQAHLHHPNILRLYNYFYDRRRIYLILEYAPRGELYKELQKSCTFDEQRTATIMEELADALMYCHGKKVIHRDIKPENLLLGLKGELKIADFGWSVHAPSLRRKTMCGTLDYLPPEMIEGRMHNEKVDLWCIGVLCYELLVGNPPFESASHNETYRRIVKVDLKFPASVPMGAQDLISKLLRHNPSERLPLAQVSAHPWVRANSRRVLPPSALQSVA

| Structure (SMILES) | selectivity ratio IC50(AURB)/IC50(SYK) [1] | IC50 [1, 3] [nM] | IC50 [2, 4] [nM] | IC50 ([1]; read-out: IC50(AURB)) [nM] | IC50 ([2]; read-out: IC50(FLT3)) [nM] |
| --- | --- | --- | --- | --- | --- |
| Cc1c2c(O[C@H](C)[C@H]3CNC(=O)C3)cc(-c3cnn(CC(C)C)c3)cc2nn1C [Example 19, (R)-4-{(R)-1-[6-(1-Isobutyl-1H-pyrazol-4-yl)-2,3-dimethyl-2H-indazol-4-yloxy]-ethyl}-pyrrolidin-2-one] | 13212 | 23800 | 4950 | – | – |
| Cc1c2c(O[C@H](C)[C@H]3CNC(=O)C3)cc(-c3cnn(C4CC4)c3)cc2nn1C [Example 20, (R)-4-{(R)-1-[6-(1-Cyclopropyl-1H-pyrazol-4-yl)-2,3-dimethyl-2H-indazol-4-yloxy]-ethyl}-pyrrolidin-2-one] | 13932 | 34800 | 3320 | – | – |
| Cc1c2c(O[C@H](C)[C@H]3CNC(=O)C3)cc(-c3cnn(C4CCC4)c3)cc2nn1C [Example 21, (R)-4-{(R)-1-[6-(1-Cyclobutyl-1H-pyrazol-4-yl)-2,3-dimethyl-2H-indazol-4-yloxy]-ethyl}-pyrrolidin-2-one] | 14442 | 17300 | 2210 | – | – |
| Cc1c2c(O[C@H](C)[C@H]3CNC(=O)C3)cc(-c3cnn(C4CCC(F)(F)C4)c3)cc2nn1C (stereo partly drawn) [Example 22, (R)-4-((R)-1-{6-[1-(3,3-Difluoro-cyclopentyl)-1H-pyrazol-4-yl]-2,3-dimethyl-2H-indazol-4-yloxy}-ethyl)-pyrrolidin-2-one] | 11207 | 13400 | 1950 | – | – |
| C[C@@H](Oc1nc(-c2cnn(C(C)(C)C)c2)cc2ncn(C)c12)[C@H]1CNC(=O)C1 [example 3A.02, on page 196 of WO15017610, reference compound] | 891 | 1690 | 384 | 1690 | 384 |
| C[C@@H](Oc1cc(-c2cnn(C(C)(C)C)c2)cc2ncn(C)c12)[C@H]1CNC(=O)C1 [example 3B.22 on page 219 of WO15017610, reference compound] | 964 | 771 | 307 | 771 | 307 |
| Cc1cnn2cc(-c3cnn(C(C)(C)C)c3)nc(O[C@H](C)[C@H]3CNC(=O)C3)c12 [example 5.20 on page 506 of WO15017610, reference compound] | 810 | 162 | 43 | 162 | 43 |
| Cc1cnn2cc(-c3cnn(C(C)(C)C)c3)cc(O[C@H](C)[C@H]3CNC(=O)C3)c12 [example 6.09 on page 559 of WO15017610, reference compound] | 370 | 37 | 25 | 37 | 25 |
| Cc1cc2c(O[C@H](C)[C@H]3CNC(=O)C3)cc(-c3cnn(C(C)(C)C)c3)cn2n1 [example 6.60 on page 587 of WO15017610, reference compound] | >4850 | > 50000 | 6680 | > 50000 | 6680 |
